In assay [1] the test system is Human Breast Cancer Cells (MCF-7). Description: Cell growth inhibition by direct cell counting, MCF-7. In kind it is cell-based. To be noted: read-out: IG50 MCF-7. On the procedure: (§1) Cells were taken out carefully from liquid nitrogen (Frozen pipes), and the cell freezing medium was thawed rapidly in water bath at 37° C. in order to rapidly pass through the temperature range of 0 to 5° C. within which the cell is easily damaged. Cell suspension was sucked with pipette gun and put it into centrifugal tubes under sterile condition, then was centrifuged for 3 min at 1300 r/min. The supernatant was gently discarded, and then added with a fresh medium to pipette and mix the cells. Finally, the cells were transferred into culture flasks, and cultured in a carbon dioxide incubator. The medium was changed once after 24 h.
(§2) After resuscitation, the cells were passed for 2-3 generations till they became stable, then they were used for the experiments. Each passage was based on the standard that all cells were spread over the bottoms of culture flasks.
(§3) Cell suspensions of a certain density (5×10^4 cells/mL) were plated at 24-well plate, 2 mL/well. Different concentration of drugs were added thereto, and incubated or some time. Then, cells were counted under the microscope. The ratio of total number of cells in test group to the total number of cells in control group is the cell growth inhibition rate under the concentration condition. The total number of cells in cell suspension, which were treated by drugs, could be counted by blood count board. Inhibition rate was calculated using the formula: […]
(§4) According to cell growth inhibition rate of each concentration of drugs, half inhibitory concentration could be calculated. (IG50 is the drug concentration, when cell growth inhibition rate was 50%.)
(§5) 7) The Results of the Growth Inhibitory Activity of the Compounds on Human Breast Cancer Cells (MCF-7) and Human Multidrug Resistant Breast Cancer Cells (MCF-7/Adr) were Listed in Table 3.

Assay [2] concerns Human Multidrug Resistant Breast Cancer Cells (MCF-7/Adr). As to the kind of experiment: Cell growth inhibition by direct cell counting, MCF-7/Adr. The format is cell-based. To be noted: read-out: IG50 MCF-7/Adr. On the procedure:
as §1, §2, §3, §4, §5

The mark [3] stands for this setting: MCF-7/Adr multidrug resistant cells.

Where two headings read alike, the source gives them in different places.

In the case of `C[C@H]1[C@@H](Oc2cccc(CN3CCN(c4ccccc4)CC3)c2)O[C@@H]2O[C@@]3(C)CC[C@H]4[C@H](C)CC[C@@H]1[C@@]24OO3` [Example 18, 10-O-[3-[(4-phenylpiperazin-1-yl)methyl]phenyl]-(10S)-dihydroartemisinin], the IC50 turned out to be 690 nM in assay [1] (MCF-7 cells) and 355 nM in assay [2] (setting [3]).
As to `C[C@H]1[C@@H](Oc2ccc(Cn3cncn3)cc2)O[C@@H]2O[C@@]3(C)CC[C@H]4[C@H](C)CC[C@@H]1[C@@]24OO3` [Example 4, (10S)—O-[4-((1,2,4-triazol-1-yl)methyl)phenyl]-dihydroartemisinin], the values for the IC50 in assay [1] (MCF-7 cells) and in assay [2] (setting [3]) were 1620 nM and 476 nM, respectively.
For the compound `C[C@H]1[C@@H](Oc2ccc(CN3CCN(C)CC3)cc2)O[C@@H]2O[C@@]3(C)CC[C@H]4[C@H](C)CC[C@@H]1[C@@]24OO3` [Example 12, (10S)—O-[4-((4-methylpiperazin-1-yl)methyl)phenyl]-dihydroartemisinin], the IC50 in assay [1] (MCF-7 cells) came out at 1050 nM; in assay [2] (setting [3]), 190 nM.
For the compound `CC1CC(C)CN(C(=O)Cc2ccc(O[C@H]3O[C@@H]4O[C@@]5(C)CC[C@H]6[C@H](C)CC[C@@H]([C@H]3C)[C@@]46OO5)cc2)C1` (stereo partly drawn) [Example 38, (10S)—O-{4-[2-(3,5-dimethylpiperidin-1-yl)-2-oxoethyl]phenyl}-dihydroartemisinin], the results for the IC50 in assay [1] (MCF-7 cells) and in assay [2] (setting [3]) were 516 nM and 360 nM, respectively.
Take `CC1CCC2C(C)[C@@H](Oc3ccc(CC(=O)N4CCC(N5CCCCC5)CC4)cc3)OC3OC4(C)CCC1C32OO4` (stereo partly drawn) [Example 39, (10S)—O-{4-[2-[4-(piperidin-1-yl)piperidin-1-yl]-2-oxoethyl]phenyl}-dihydroartemisinin]: the IC50 in assay [1] (MCF-7 cells) came out at 1150 nM; in assay [2] (setting [3]), 22.9 nM.
For “(10S)—O-{4-[2-[4-(pyridin-2-yl)piperazin-1-yl]-2-oxoethyl]phenyl}-dihydroartemisinin [Example 44]”, the IC50 was 1490 nM in assay [1] and 180 nM in assay [2].
With `CC1CCC2C(C)[C@@H](Oc3ccc(/C=C/C(=O)N4CCN(Cc5ccccc5)CC4)cc3)OC3OC4(C)CCC1C32OO4` (stereo partly drawn) [Example 29, (10S)—O-{4-[3-oxo-3-(4-benzylpiperazin-1-yl)-1-(E)-propen-1-yl]phenyl}-dihydroartemisinin], in assay [1] (MCF-7 cells), the IC50 turned out to be 15.6 nM.
Turning to `CC1CCC2C(C)[C@@H](Oc3ccc(Cn4ccnn4)cc3)OC3OC4(C)CCC1C32OO4` (stereo partly drawn) [Example 3, (10S)—O-[4-((1,2,3-triazol-1-yl)methyl)phenyl]-dihydroartemisinin], the results for the IC50 in assay [1] (MCF-7 cells) and in assay [2] (setting [3]) were 1320 nM and 718 nM, respectively.
On to `CC1CCC2C(C)[C@@H](Oc3ccc(/C=C/C(=O)N4CCOCC4)cc3)OC3OC4(C)CCC1C32OO4` (stereo partly drawn) [Example 21, (10S)—O-{4-[3-oxo-3-(morpholin-4-yl)-1-(E)-propen-1-yl]phenyl}-dihydroartemisinin], for which the IC50 in assay [1] (MCF-7 cells) is 241 nM.
On to `COc1ccccc1N1CCN(C(=O)Cc2ccc(O[C@H]3OC4OC5(C)CCC6C(C)CCC(C3C)C46OO5)cc2)CC1` (stereo partly drawn) [Example 41, (10S)—O-{4-[2-[4-(2-methoxyphenyl)piperazin-1-yl]-2-oxoethyl]phenyl}-dihydroartemisinin], for which the figures for the IC50 in assay [1] (MCF-7 cells) and in assay [2] (setting [3]) were 790 nM and 29.8 nM, respectively.
Turning to `CC1CCC2C(C)[C@@H](Oc3ccc(/C=C/C(=O)N4CCN(c5ccccn5)CC4)cc3)OC3OC4(C)CCC1C32OO4` (stereo partly drawn) [Example 30, (10S)—O-{4-[3-oxo-3-(4-(2-pyridyl)piperazin-1-yl)-1-(E)-propen-1-yl]phenyl}-dihydroartemisinin], the IC50 in assay [1] (MCF-7 cells) worked out at 263 nM.
Regarding `CC1CCN(C(=O)Cc2ccc(O[C@H]3OC4OC5(C)CCC6C(C)CCC(C3C)C46OO5)cc2)CC1` (stereo partly drawn) [Example 36, (10S)—O-{4-[2-(4-methylpiperidin-1-yl)-2-oxoethyl]phenyl}-dihydroartemisinin], the IC50 in assay [1] (MCF-7 cells) stood at 549 nM; in assay [2] (setting [3]), 104 nM.
As for `CC1CCC2C(C)[C@@H](Oc3ccc(CC(=O)NCc4ccccc4)cc3)OC3OC4(C)CCC1C32OO4` (stereo partly drawn) [Example 48, (10S)—O-[4-[2-(benzylamino)-2-oxoethyl]phenyl]-dihydroartemisinin], the IC50 in assay [1] (MCF-7 cells) worked out at 1400 nM.
For `CC1CCC2C(C)[C@@H](Oc3ccc(/C=C/C(=O)N4CCN(c5cccc(C(F)(F)F)c5)CC4)cc3)OC3OC4(C)CCC1C32OO4` (stereo partly drawn) [Example 28, (10S)—O-{4-[3-oxo-3-(4-(3-trifluoromethylphenyl)piperazin-1-yl)-1-(E)-propen-1-yl]phenyl}-dihydroartemisinin], the IC50 in assay [1] (MCF-7 cells) came to 91.1 nM.
With `CC1CCC2C(C)[C@@H](Oc3ccc(CC(=O)N4CCOCC4)cc3)OC3OC4(C)CCC1C32OO4` (stereo partly drawn) [Example 34, (10S)—O-{4-[2-(morpholin-4-yl)-2-oxoethyl]phenyl}-dihydroartemisinin], the IC50 is 7580 nM in assay [1] (MCF-7 cells) and 239 nM in assay [2] (setting [3]).
As to `CC1CCCCN1C(=O)Cc1ccc(O[C@H]2O[C@@H]3O[C@@]4(C)CC[C@H]5[C@H](C)CC[C@@H]([C@H]2C)[C@@]35OO4)cc1` (stereo partly drawn) [Example 37, (10S)—O-{4-[2-(2-methylpiperidin-1-yl)-2-oxoethyl]phenyl}-dihydroartemisinin], the IC50 in assay [1] was found to be 1250 nM.
Consider `CC1CCC2C(C)[C@@H](Oc3ccc(CC(=O)N4CCN(C)CC4c4ccccc4)cc3)OC3OC4(C)CCC1C32OO4` (stereo partly drawn) [Example 43, (10S)—O-{4-[2-(4-methyl-2-phenylpiperazin-1-yl)-2-oxoethyl]phenyl}-dihydroartemisinin], for which the IC50 in assay [1] (MCF-7 cells) stood at 2290 nM; in assay [2] (setting [3]) it was 1060 nM.
For `COc1ccccc1N1CCN(Cc2ccc(O[C@H]3O[C@@H]4O[C@@]5(C)CC[C@H]6[C@H](C)CC[C@@H]([C@H]3C)[C@@]46OO5)cc2)CC1` [Example 11, (10)-O-[4-[(4-(2-methoxyphenyl)piperazin-1-yl)methyl]phenyl](10S)-dihydroartemisinin], the IC50 in assay [1] (MCF-7 cells) was 475 nM; in assay [2] (setting [3]), 456 nM.
Take “(10S)—O-{4-[2-[4-(pyrimidin-2-yl)piperazin-1-yl]-2-oxoethyl]phenyl}-dihydroartemisinin [Example 45]”: the IC50 in assay [1] (MCF-7 cells) came to 1490 nM; in assay [2] (setting [3]) it was 110 nM.
In the case of `CC1CCC2C(C)[C@@H](Oc3ccc(CN4CCN(c5ncccn5)CC4)cc3)OC3OC4(C)CCC1C32OO4` (stereo partly drawn) [Example 15, 10-O-[4-[(4-(2-pyrimidinyl)piperazin-1-yl)methyl]phenyl]-(10S)-dihydroartemisinin], the IC50 in assay [1] (MCF-7 cells) was 443 nM; in assay [2] (setting [3]), 1660 nM.
As to `CC1CCC2C(C)[C@@H](Oc3cccc(CN4CCN(Cc5ccccc5)CC4)c3)OC3OC4(C)CCC1C32OO4` (stereo partly drawn) [Example 19], the IC50 in assay [1] (MCF-7 cells) was 1190 nM; in assay [2] (setting [3]), 1090 nM.
Consider `C[C@H]1[C@@H](Oc2ccc(CC(=O)N3CCN(c4ccccc4)CC3)cc2)O[C@@H]2O[C@@]3(C)CC[C@H]4[C@H](C)CC[C@@H]1[C@@]24OO3` [Example 40, (10S)—O-{4-[2-(4-phenylpiperazin-1-yl)-2-oxoethyl]phenyl}-dihydroartemisinin], for which the IC50 in assay [1] came out at 2660 nM; in assay [2] it was 79.1 nM.
Regarding `C[C@H]1[C@@H](Oc2ccc(CN3CCN(c4ccc(F)cc4)CC3)cc2)O[C@@H]2O[C@@]3(C)CC[C@H]4[C@H](C)CC[C@@H]1[C@@]24OO3` [Example 13], the IC50 in assay [1] (MCF-7 cells) was found to be 267 nM; in assay [2] (setting [3]), 330 nM.
As for `C[C@H]1[C@@H](Oc2ccc(/C=C/C(=O)N3CCC(N4CCCCC4)CC3)cc2)O[C@@H]2O[C@@]3(C)CC[C@H]4[C@H](C)CC[C@@H]1[C@@]24OO3` [Example 23], in assay [1] (MCF-7 cells), the IC50 was 586 nM.
`COc1ccccc1N1CCN(C(=O)/C=C/c2ccc(O[C@H]3O[C@@H]4O[C@@]5(C)CC[C@H]6[C@H](C)CC[C@@H]([C@H]3C)[C@@]46OO5)cc2)CC1` [Example 27, (10S)—O-{4-[3-oxo-3-(4-(2-methoxyphenyl)piperazin-1-yl)-1-(E)-propen-1-yl]phenyl}-dihydroartemisinin]: the IC50 in assay [1] (MCF-7 cells) was 322 nM.
As to `C[C@H]1[C@@H](Oc2ccc(CC(=O)N3CCCCC3)cc2)O[C@@H]2O[C@@]3(C)CC[C@H]4[C@H](C)CC[C@@H]1[C@@]24OO3` [Example 35, (10S)—O-{4-[2-(piperidin-1-yl)-2-oxoethyl]phenyl}-dihydroartemisinin], the IC50 in assay [1] (MCF-7 cells) came to 1700 nM; in assay [2] (setting [3]), 62.4 nM.
In the case of `CC1CCC2C(C)[C@@H](Oc3ccc(C=CC(=O)Oc4ccc(/C=C/C(=O)N5CCN(c6ncccn6)CC5)cc4)cc3)OC3OC4(C)CCC1C32OO4` (stereo partly drawn) [Example 32, 4-[(10S)-dihydroartemisinin-10-O-yl]phenyl-acrylic acid-4-[3-oxo-3-(4-(2-pyrimidinyl)piperazin-1-yl)-1-(E)-propen-1-yl]phenyl ester], the IC50 in assay [1] (MCF-7 cells) was found to be 408 nM.
On to `CC1CCC2C(C)[C@@H](Oc3ccc(/C=C/C(=O)N4CCCCC4)cc3)OC3OC4(C)CCC1C32OO4` (stereo partly drawn) [Example 22, (10S)—O-{4-[3-oxo-3-(piperidin-1-yl)-1-(E)-propen-1-yl]phenyl}-dihydroartemisinin], for which the IC50 in assay [1] (MCF-7 cells) was 6.07 nM.
Regarding `CC1CCC2C(C)[C@@H](Oc3ccc(CC(=O)N4CCN(C5CCCCC5)CC4)cc3)OC3OC4(C)CCC1C32OO4` (stereo partly drawn) [Example 46, (10S)—O-{4-[2-(4-cyclohexylpiperazin-1-yl)-2-oxoethyl]phenyl}-dihydroartemisinin], the IC50 in assay [1] (MCF-7 cells) is 1120 nM; in assay [2] (setting [3]), 98 nM.

The values are drawn from patent US9718837B2, “Nitrogen-containing heterocyclic ring substituted dihydroartemisinin derivatives and use thereof” (Shenyang Pharmaceutical University, priority 2013, dated 2017).
